Measured values: patent US20260232666A1, “COMPOSITIONS AND METHODS FOR INHIBITION OF RAS” (TheRas, Inc., priority 2023, published 2026)

Key:
[1] = biological target: T1, GppNHp-loaded KRAS4b (amino acids 1-169) G12C/C118S protein (Homo sapiens, UniProt P01116, C118S/G12C); assay: Covalent cysteine 12 modification by MALDI-TOF MS, GppNHp-loaded KRAS G12C; type: binding; conditions: 15 minutes reaction time point
T1 construct: KRAS4b (amino acids 1-169) G12C/C118S protein; made in house
Method in brief: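 Protein (1 μM) was incubated with compound at a 1:2.5 protein:compound ratio in 20 mM HEPES, 150 mM NaCl, 1 mM MgCl2, pH 7.3, at room temperature in the dark. After 15 min, samples were mixed into sinapinic acid matrix and analysed by linear-mode MALDI-TOF. Modification is adduct peak height over summed unmodified plus adduct heights.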

[2] = tested on: pERK in NCI-H358 cells; assay: Cell-based pERK HTRF assay (pERK inhibition in H358 cells); conditions: 30 min incubation
Method in brief: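 NCI-H358 cells were seeded at 4×10^4 cells/well in RPMI/10% FBS, then treated next day for 30 min at 0.25% DMSO (9-point, 3-fold series from 75 μM). Lysates were read by HTRF (d2/Eu cryptate antibody pair, 615 nm emission) after 4–24 h at room temperature to give pERK IC50.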

Row | SMILES | GppNHp-KRAS G12C percent of modification [1] | IC50 ([2]; Homo sapiens, NCI-H358, 0.5 h) [nM] | IC50 [2] [nM]
1 | C=CC(=O)N1CC[C@@H](N(CC)c2nc(OC[C@@H]3C[C@@H](F)CN3C)nc3cc(-c4ccc(F)c5sc(N)c(C#N)c45)c(F)cc23)[C@H]1C [Compound 139] | A (percent of modification ≥70%) | 100 to 1000 | 
2 | C=CC(=O)N1C2CCC1CN(c1nc(OC[C@@]34CCCN3C[C@H](F)C4)nc3c(F)c(-c4ccc(F)c5sc(N)c(C#N)c45)c(C(F)(F)F)cc13)C2 [Compound 34] | C (10%≤percent of modification <50%) | < 100 | 
3 | C=CC(=O)N1C[C@H](N(C)c2nc(OC[C@@]34CCCN3C[C@H](F)C4)nc3c(F)c(-c4ccc(F)c5sc(N)c(C#N)c45)c(C(F)(F)F)cc23)C[C@@H]1C [Compound 108] | A (percent of modification ≥70%) | < 100 | 
4 | C=CC(=O)N1C[C@H](N(C)c2nc(OC[C@@]34CCCN3C[C@H](F)C4)nc3c(F)c(-c4ccc(F)c5sc(N)c(C#N)c45)c(C(F)(F)F)cc23)C[C@H]1C (atropisomer, axis not shown) [Compound 176] | A (percent of modification ≥70%) | < 100 | 
5 | C=CC(=O)N1CC[C@@H](N(CC)c2nc(OC[C@@H]3C[C@@H](OC)CN3C)nc3c(F)c(-c4ccc(F)c5sc(N)c(C#N)c45)c(C(F)(F)F)cc23)[C@H]1C (single isomer, unassigned) [Compound 116] | A (percent of modification ≥70%) |  | < 100
6 | C=CC(=O)N1CC[C@@H](N(C)c2nc(OC[C@@H]3C[C@@H](OC)CN3C)nc3c(F)c(-c4ccc(F)c5sc(N)c(C#N)c45)c(C(F)(F)F)cc23)[C@H]1C (single isomer, unassigned) [Compound 172] | A (percent of modification ≥70%) | < 100 | 
7 | C=CC(=O)N1CC[C@@H](N(C)c2nc(OC[C@@]34CCCN3C[C@H](F)C4)nc3cc(-c4ccc(F)c5sc(N)c(C#N)c45)c(C#N)cc23)[C@@H]1CC [Compound 24] | C (10%≤percent of modification <50%) | < 100 | 
8 | C=CC(=O)N1CC[C@@H](N(C)c2nc(OC[C@@]34CCCN3C[C@H](F)C4)nc3cc(-c4ccc(F)c5sc(N)c(C#N)c45)c(F)cc23)[C@@H]1CC [Compound 22] | D (percent of modification <10%) | < 100 | 

Second part, the molecule after the results:

Row | GppNHp-KRAS G12C percent of modification [1] | IC50 ([2]; Homo sapiens, NCI-H358, 0.5 h) [nM] | IC50 [2] [nM] | SMILES
9 | A (percent of modification ≥70%) | 100 to 1000 |  | C=CC(=O)N1CC[C@@H](N(CC)c2nc(OC[C@]34CCCN3C[C@H](OC)C4)nc3c(F)c(-c4ccc(F)c5sc(N)c(C#N)c45)ccc23)[C@H]1C [Compound 169]
10 | A (percent of modification ≥70%) | < 100 |  | C=CC(=O)N1C[C@H](C)N(c2nc(OC[C@@]34CCCN3C[C@H](F)C4)nc3c(F)c(-c4ccc(F)c5sc(N)c(C#N)c45)c(Cl)cc23)C[C@H]1C (atropisomer, axis not shown) [Compound 102]
11 | C (10%≤percent of modification <50%) | < 100 |  | C=CC(=O)N1CCC(N(CC)c2nc(OC[C@@]34CCCN3C[C@H](F)C4)nc3c(F)c(-c4ccc(F)c5sc(N)c(C#N)c45)c(C(F)(F)F)cc23)[C@H]1CC (stereo partly drawn) [Compound 8]
12 | A (percent of modification ≥70%) | 100 to 1000 |  | C=CC(=O)N1CC[C@@H](N(C)c2nc(OC[C@@H]3CCCN3C)nc3c(F)c(-c4nc(N)cc(C)c4C(F)(F)F)c(C(F)(F)F)cc23)[C@H]1C [Compound 122]
13 | B (50≤percent of modification <70%) | 100 to 1000 |  | C=CC(=O)N1CC[C@@H](N(C)c2nc(OC[C@@H]3C[C@@H](F)CN3C)nc3c(F)c(-c4nc(N)cc(C)c4C(F)(F)F)c(C(F)(F)F)cc23)[C@H]1C [Compound 145]
14 | C (10%≤percent of modification <50%) | < 100 |  | C=CC(=O)N1CC[C@@H](N(C)c2nc(OC[C@@]34CCCN3C[C@H](F)C4)nc3c(F)c(-c4ccc(F)c5sc(N)c(C#N)c45)c(Cl)cc23)[C@H]1CC [Compound 19]
15 | A (percent of modification ≥70%) |  | < 100 | C=CC(=O)N1CC[C@@H](N(CC)c2nc(OC[C@@H]3CC4(CC4)CN3C)nc3c(F)c(-c4ccc(F)c5sc(N)c(C#N)c45)c(Cl)cc23)[C@H]1C (atropisomer, axis not shown) [Compound 120]
